The test system of one experiment is cGAS-STING pathway. In words: cGAS-STING pathway analysis (western blotting; cGAS knockout RT-qPCR). Format: cell-based, mouse, human. The settings on record: DMS79, RPP631, cGAS knockout RPP631. Here is the method: Cell pellets were collected and then subjected to total RNA extraction using RNeasy Plus Mini Kit (QIAGEN, Cat #74136) according to the manufacturer's instructions, or using TRIzol:Chloroform phase-separation by centrifugation followed by RNA precipitation using isopropanol. The extracted RNA was reversely transcribed into cDNA using the High-Capacity RNA-to-cDNA™ Kit (Thermo Fisher Scientific, Cat #4387406) according to the manufacturer's instructions. The obtained cDNA samples were diluted and used for RT-qPCR. PowerUp™ SYBR™ Green Master Mix (Thermo Fisher Scientific, Cat #A25742) or TaqMan Gene Expression Master Mix (Life Technologies, Cat #4369514). Gene specific primers with sequences listed in Table 3 were used for PCR amplification and detection on the StepOnePlus™ Real-Time PCR System (Thermo Fisher Scientific). RT-qPCR data were normalized to Actb (mouse cells) or GUSB (human cells) and presented as fold changes of gene expression in the test sample compared to the control.
Cells in culture were collected by centrifuging at 1,500 rpm and then washed with ice-cold PBS twice to completely remove residual medium. […] Protein concentrations in lysates were measured by Pierce™ BCA Protein Assay Kit (Thermo Fisher Scientific, Cat #23225) and followed by the addition of SDS loading buffer (6×) and heated at 95° C. for 5 min. […]

The test system of experiment [1] is intratumoral cell populations, RPP orthotopic mice. Kind of experiment: Single-cell RNA sequencing of tumor-bearing lungs. It counts as in vivo, mouse. On the procedure: To account for interindividual variability, we harvested pooled fresh tumor-bearing lungs from two mice in two independent cohorts of RPP orthotopic mice which were treated with control, YKL-5-124, anti-PD-1 and combination treatment for seven days. Single cell suspensions were achieved as described above and were sorted using DAPI staining. Cells were then resuspended into single cells with 0.4% BSA for 10× genomics processing. Cell suspensions were loaded onto a 10× Genomics Chromium instrument to generate single-cell gel beads in emulsion (GEMs). Approximately 5,000 to 10,000 cells were loaded per channel. scRNA-seq libraries were prepared using the following Single Cell 3′ Reagent Kits: Chromium™ Single Cell 3′ Library & Gel Bead Kit v2 (PN-120237), Single Cell 3′ Chip Kit v2 (PN-120236) and i7 Multiplex Kit (PN-120262) (10× Genomics, Pleasanton, Calif., USA), and following the Single Cell 3′ Reagent Kits v2 User Guide (Manual Part #CG00052 Rev A). Libraries were run on an Illumina HiSeq 4000 system (SY-401-4001, Illumina) as 2×150 paired-end reads, one full lane per sample, for approximately >90% sequencing saturation.
The Cell Ranger Single Cell Software Suite, version 1.3 was used to perform sample de-multiplexing, barcode and UMI processing, and single-cell 3′ gene counting. A detailed description of the pipeline and specific instructions to run it can be found at: https://Support.10×genomics.com/single-cell-gene-expression/software/pipelines/latest/what-is-cell-ranger). A high quality gene expression matrix was created in sequential preprocessing steps as provided in the Seurat (v2.3.4) pipeline. First only genes that were detected in both independent scRNAseq datasets were retained and cells were excluded if respectively more than […] of detected genes were from mitochondrial or ribosomal origin or if less than 500 genes were detected. The count matrix was subsequently log-normalized with a scale-factor of 10000 and the obtained normalized matrix was further corrected by retaining the residuals after regressing out systematic changes due to number of detected UMIs, percent genes from mitochondrial or ribosomal origin.
Cells from both independent datasets were merged together in canonical correlation (CC) space using the intersection of highly variable genes, identified as genes with higher-than-expected variability in consecutive ranked expression bins, from both datasets. The implementation of CC alignment and selection of downstream dimensions to use was performed as described in the Seurat package. Cells were clustered using the Louvain algorithm based on a shared nearest-neighbor network. The final resolution of all subsequent clustering analyses was determined by the biological questions and the need for coarse or fine-grained detail as explored in the subsequent cluster annotation. Clusters were annotated using input from multiple sources, we i) calculated a stromal, cancer and immune score using the estimate (v1.0.13) package in R, ii) identified cluster specific gene expression markers based on gini-scores, iii) created a hierarchical tree based on Pearson correlation scores between clusters to visualize lineage relationships and iv) compared clusters to those of the Immgen database using the SingleR (v0.2.1) package in R. UMAP as implemented by the uwot (v0.0.0.9010) package in R was used to visualize clusters in 2D CC space. Overall this strategy was hierarchically used to assess all cells, cancer cells only, immune cells only and finally T-cells only.
In the first clustering step, several additional analyses were performed to remove dubious or non-reproducible clusters from downstream analyses. To identify contamination of immune cell clusters with cancer cells we performed k-means (2 centers) clustering on all cells on identified and known canonical markers (Epcam, Calca, Stmn1, Ascl1, Krt7, Nfib, Krt8, Krt18) specific to cancer cells. […]

As to `C=CC(=O)Nc1ccc(C(=O)Nc2n[nH]c3c2CN(C(=O)N[C@H](CN(C)C)c2ccccc2)C3(C)C)cc1` [YKL-5-124], in the experiment with cGAS-STING pathway, the “dependence of the immune stimulatory effect on the cGAS-STING pathway” value is “independent of this pathway”. In experiment [1] (compared with control group), the “frequencies of total immune cell components” value is recorded as “increase”. In experiment [1] (in comparison to control), the DCs result was “increase”; the myeloid compartments entry is “higher numbers of monocytes and neutrophils”; the “percentage of total T cells, NK cells and ILC cells” value was “significant increase”. In addition, in experiment [1] (in vivo), the “genes within the 'cell-cycle' and 'E2F target' signatures (GSEA)” value was “significantly downregulated”; the “immune response signaling ('Interferon gamma response', 'Inflammatory response')” value is “triggered robust immune response signaling”. In experiment [1] (in vivo, seven days), the “cell-cycle state distribution of cancer cells” value was “mainly arrested at G1 phase”; the “percentage of S phase cells (cluster 4, 5 and 6)” value was “significant decrease”. For the same compound, in experiment [1] (mouse, in vivo), the “c0, c8 and c9 clusters of naive-like CD8^+ T cells” value was “reduction”; the c4 percentage result is given as “slight reduction”.
